Experimental data published in US6313110A, “Substituted 2H-1,3-diazapin-2-one useful as an HIV protease inhibitor” (priority 2000, dated 2001).
Where two headings read alike, the source gives them in different places.

System: HIV-1 (RF) in MT-2 cells
Assay: HIV RNA assay: antiviral potency in HIV-1 (RF) infected MT-2 cells (reduction of HIV RNA level)
Format: cell-based
Description: Plasmid pDAB 72 containing both gag and pol sequences of BH10 (bp 113-1816) cloned into PTZ 19R was prepared according to Erickson-Viitanen et al. AIDS Research and Human Retroviruses 1989, 5, 577. The plasmid was linearized with Bam HI prior to the generation of in vitro RNA transcripts using the Riboprobe Gemini system II kit (Promega) with T7 RNA polymerase. Synthesized RNA was purified by treatment with RNase free DNAse (Promega), phenol-chloroform extraction, and ethanol precipitation. RNA transcripts were dissolved in water, and stored at -70° C. The concentration of RNA was determined from the A260.
Biotinylated capture probes were purified by HPLC after synthesis on an Applied Biosystems (Foster City, Calif.) DNA synthesizer by addition of biotin to the 5' terminal end of the oligonucleotide, using the biotin-phosphoramidite reagent of Cocuzza, Tet. Lett. 1989, 30, 6287. […]
MT-2 and MT-4 cells were maintained in RPMI 1640 supplemented with 5% fetal calf serum (FCS) for MT-2 cells or 10% FCS for MT-4 cells, 2 mM L-glutamine and 50 μg/mL gentamycin, all from Gibco. […] Infectious titers of HIV-1(RF) stocks were 1-3×10^7 PFU (plaque forming units)/mL as measured by plaque assay on MT-2 cells (see below). […]

| IC90 (Human immunodeficiency virus 1, MT2, 72 h, 3 days culture at 37° C., read-out: IC90 (concentration of compound required to reduce the HIV RNA level by 90%)) | IC90 (Human immunodeficiency virus 1, MT2, ddC reference, dilutions of virus selected to give this IC90, read-out: IC90 (concentration of compound required to reduce the HIV RNA level by 90%)) | SMILES |
| --- | --- | --- |
| < 50 nM | – | Nc1cccc(CN2C(=O)N(Cc3ccc4[nH]ncc4c3)[C@H](Cc3ccccc3)[C@H](O)[C@@H](O)[C@H]2Cc2ccccc2)c1 [Example 1, (4R,5S,6S,7R)-hexahydro-1-[(indazol-5-yl)methyl]-5,6-dihydroxy-4,7-bis[phenylmethyl]-3-(3-aminophenyl)methyl-2H-1,3-diazapin-2-one] |
| – | 0.2 µg/mL | Nc1ccn([C@H]2CC[C@@H](CO)O2)c(=O)n1 [ddC, dideoxycytidine] |
